Results as given in PMC4153658, “A Pentasymmetric Open Channel Blocker for Cys-Loop Receptor Channels” (PLoS ONE, 2014).
“And” between values parts separate entries of the source, which are not always exact repeats. Equal values may be shown once. Read-outs that look alike come from different tables or passages of the source.

What was measured:
[1] = biological target: T1, α1β2γ2 rat GABAA receptors (Rattus norvegicus, UniProt P18508+P62813+P63138); assay type: cell-based; conditions: for IC50: GABA EC10
T1 construct: expressed in transfected cells; host or cells: Xenopus laevis oocytes, cRNA injection
Method: (§1) Capped cRNAs were synthesized from the linearized plasmids. A poly-A tail of about 400 residues was added to each transcript using yeast poly-A polymerase. The concentration of the cRNA was quantified on a formaldehyde gel using Radiant Red stain for visualization of the RNA. Known concentrations of RNA ladder were loaded as standard on the same gel. cRNAs were precipitated in ethanol/isoamylalcohol 19∶1, the dried pellet dissolved in water and stored at −80°C. Xenopus oocytes were prepared, injected and defollicated as described previously (Research approved by the Kantonstierarzt, Kantonaler Veterinärdienst Bern (Animal research permit BE98/12)). Briefly, Xenopus laevis oocytes were injected with 50 nL of the cRNA solution containing wild type or mutated α1, β2 and γ2 subunits at a concentration of 10 nM: 10 nM: 50 nM and then incubated in modified Barth's solution at 18°C for at least 24 h before the measurements. […] Currents were measured using a home-built two-electrode voltage clamp amplifier in combination with a XY-recorder or digitized using a PowerLab 2/20 (AD Instruments) using the computer program Chart. Tests with a model oocyte were performed to ensure linearity in the larger current range. […] Similar experiments were performed with picrotoxin. Due to the difficulty of washing out picrotoxin out from the oocytes two different oocytes were used to test the inhibition before and after the treatment with the cysteine reactive compound. Inhibition after treatment was divided by % inhibition before treatment. To test the ability of PCCP^− to protect the engineered cysteines from covalent modification by MTSET^+, we used the same sequence of perfusion except that MTSET^+ was co-applied with 1 mM PCCP^−. Results were obtained on 3–4 single oocytes for each receptor.

[2] = biological target: T2, α1A253Cβ2γ2 GABAA receptor (Rattus norvegicus, UniProt P18508+P62813+P63138, A280C); experiment: Two-electrode voltage clamp, mutant α1A253Cβ2γ2 in Xenopus oocytes; assay type: cell-based; conditions: read-out: IC50 mean ± SD for inhibition of GABA-activated current
T2 construct: expressed in transfected cells; host or cells: Xenopus laevis oocytes, cRNA injection
Method: as §1, with “Due to the difficulty of washing out picrotoxin out from the oocytes two different oocytes were used to test the inhibition before and after the treatment with the cysteine reactive compound. Inhibition after treatment was divided by % inhibition before treatment. To test the ability of PCCP^− to protect the engineered cysteines from covalent modification by MTSET^+, we used the same sequence of perfusion except that MTSET^+ was co-applied with 1 mM PCCP^−. Results were obtained on 3–4 single oocytes for each receptor.” left out

[3] = biological target: T3, α1V256Cβ2γ2 GABAA receptor (Rattus norvegicus, UniProt P18508+P62813+P63138, V283C); experiment: Two-electrode voltage clamp, mutant α1V256Cβ2γ2 in Xenopus oocytes; assay type: cell-based; conditions: for IC50: read-out: IC50 mean ± SD for inhibition of GABA-activated current
T3 construct: expressed in transfected cells; host or cells: Xenopus laevis oocytes, cRNA injection
Method: as §1

[4] = biological target: T4, α1T260Cβ2γ2 GABAA receptor (Rattus norvegicus, UniProt P18508+P62813+P63138, T287C); assay type: cell-based; conditions: read-out: IC50 mean ± SD for inhibition of GABA-activated current
T4 construct: expressed in transfected cells; host or cells: Xenopus laevis oocytes, cRNA injection
Method: as §1

[5] = test system: α1T260Cβ2γ2 GABAA receptor; assay type: cell-based, rat
Method: as §1

[6] = biological target: T5, α1T261Cβ2γ2 GABAA receptor (Rattus norvegicus, UniProt P18508+P62813+P63138, T288C); experiment: Two-electrode voltage clamp, mutant α1T261Cβ2γ2 in Xenopus oocytes; assay type: cell-based; conditions: read-out: IC50 mean ± SD for inhibition of GABA-activated current
T5 construct: expressed in transfected cells; host or cells: Xenopus laevis oocytes, cRNA injection
Method: as §1, with “Due to the difficulty of washing out picrotoxin out from the oocytes two different oocytes were used to test the inhibition before and after the treatment with the cysteine reactive compound. Inhibition after treatment was divided by % inhibition before treatment. To test the ability of PCCP^− to protect the engineered cysteines from covalent modification by MTSET^+, we used the same sequence of perfusion except that MTSET^+ was co-applied with 1 mM PCCP^−. Results were obtained on 3–4 single oocytes for each receptor.” left out

[7] = biological target: T6, α1L263Cβ2γ2 GABAA receptor (Rattus norvegicus, UniProt P18508+P62813+P63138, L290C); experiment: Two-electrode voltage clamp, mutant α1L263Cβ2γ2 in Xenopus oocytes; assay type: cell-based
T6 construct: expressed in transfected cells; host or cells: Xenopus laevis oocytes, cRNA injection
Method: as §1, with “Due to the difficulty of washing out picrotoxin out from the oocytes two different oocytes were used to test the inhibition before and after the treatment with the cysteine reactive compound. Inhibition after treatment was divided by % inhibition before treatment. To test the ability of PCCP^− to protect the engineered cysteines from covalent modification by MTSET^+, we used the same sequence of perfusion except that MTSET^+ was co-applied with 1 mM PCCP^−. Results were obtained on 3–4 single oocytes for each receptor.” left out

[8] = biological target: T7, α1T264Cβ2γ2 GABAA receptor (Rattus norvegicus, UniProt P18508+P62813+P63138, T291C); experiment: Two-electrode voltage clamp, mutant α1T264Cβ2γ2 in Xenopus oocytes; assay type: cell-based
T7 construct: expressed in transfected cells; host or cells: Xenopus laevis oocytes, cRNA injection
Method: as §1, with “Due to the difficulty of washing out picrotoxin out from the oocytes two different oocytes were used to test the inhibition before and after the treatment with the cysteine reactive compound. Inhibition after treatment was divided by % inhibition before treatment. To test the ability of PCCP^− to protect the engineered cysteines from covalent modification by MTSET^+, we used the same sequence of perfusion except that MTSET^+ was co-applied with 1 mM PCCP^−. Results were obtained on 3–4 single oocytes for each receptor.” left out

[9] = biological target: T8, α1T267Cβ2γ2 GABAA receptor (Rattus norvegicus, UniProt P18508+P62813+P63138, T294C); experiment: Two-electrode voltage clamp, mutant α1T267Cβ2γ2 in Xenopus oocytes; assay type: cell-based
T8 construct: expressed in transfected cells; host or cells: Xenopus laevis oocytes, cRNA injection
Method: as §1, with “Due to the difficulty of washing out picrotoxin out from the oocytes two different oocytes were used to test the inhibition before and after the treatment with the cysteine reactive compound. Inhibition after treatment was divided by % inhibition before treatment. To test the ability of PCCP^− to protect the engineered cysteines from covalent modification by MTSET^+, we used the same sequence of perfusion except that MTSET^+ was co-applied with 1 mM PCCP^−. Results were obtained on 3–4 single oocytes for each receptor.” left out

[10] = biological target: T9, α1β2γ2 rat GABAA receptors (Rattus norvegicus); experiment: Concentration inhibition curve, first receptor named in b22 / Figure 4A; assay type: cell-based; conditions: GABA EC10; n = 4; receptor printed as α1β2γ2
T9 construct: expressed in transfected cells; host or cells: Xenopus laevis oocytes, cRNA injection
Method: as §1, with “Due to the difficulty of washing out picrotoxin out from the oocytes two different oocytes were used to test the inhibition before and after the treatment with the cysteine reactive compound. Inhibition after treatment was divided by % inhibition before treatment. To test the ability of PCCP^− to protect the engineered cysteines from covalent modification by MTSET^+, we used the same sequence of perfusion except that MTSET^+ was co-applied with 1 mM PCCP^−. Results were obtained on 3–4 single oocytes for each receptor.” left out

[11] = biological target: T10, α1β2δ rat GABAA receptors (Rattus norvegicus, UniProt P18506+P62813+P63138); experiment: Concentration inhibition curve, α1β2δ GABAA receptors in Xenopus oocytes; assay type: cell-based; conditions: GABA EC10; n = 4
T10 construct: expressed in transfected cells; host or cells: Xenopus laevis oocytes, cRNA injection

[12] = test system: Glycine homomeric receptors; experiment: Inhibition of homomeric glycine receptors expressed in Xenopus oocytes; assay type: cell-based; conditions: compared with GABAA receptors
[13] = test system: Glycine heteromeric receptors; experiment: Inhibition of heteromeric glycine receptors expressed in Xenopus oocytes; assay type: cell-based; conditions: compared with GABAA receptors
ELIC = ELIC (Dickeya chrysanthemi, UniProt P0C7B7); conditions: read-out: Concentration required for half-maximal inhibition
Method: as §1, with “Due to the difficulty of washing out picrotoxin out from the oocytes two different oocytes were used to test the inhibition before and after the treatment with the cysteine reactive compound. Inhibition after treatment was divided by % inhibition before treatment. To test the ability of PCCP^− to protect the engineered cysteines from covalent modification by MTSET^+, we used the same sequence of perfusion except that MTSET^+ was co-applied with 1 mM PCCP^−. Results were obtained on 3–4 single oocytes for each receptor.” left out

[14] = test system: RDL Drosophila GABAA receptors, mutation A302S versus wild type; experiment: Concentration inhibition curves in wild type and mutant RDL Drosophila GABAA receptor; assay type: cell-based; conditions: GABA EC10
non-injected oocytes = experiment: Currents induced in non-injected Xenopus oocytes; assay type: cell-based, Xenopus laevis; conditions: holding potential −80 mV
[15] = test system: cysteine mutant α1β2γ2 GABAA receptors; experiment: Protection of engineered cysteines from covalent modification by MTSET^+ + GABA; assay type: cell-based, rat; conditions: 1 mM inhibitor present during MTSET^+ + GABA application
Method: as §1, with “Due to the difficulty of washing out picrotoxin out from the oocytes two different oocytes were used to test the inhibition before and after the treatment with the cysteine reactive compound. Inhibition after treatment was divided by % inhibition before treatment. To test the ability of PCCP^− to protect the engineered cysteines from covalent modification by MTSET^+, we used the same sequence of perfusion except that MTSET^+ was co-applied with 1 mM PCCP^−. Results were obtained on 3–4 single oocytes for each receptor.” left out

[16] = wild type, end of 1 min co-application, −80 mV, read-out: IC50 mean ± SD for inhibition of GABA-activated current
[17] = read-out: IC50 mean ± SD for inhibition of GABA-activated current

C[N+](C)(C)CCSS(C)(=O)=O [MTSET^+, reference compound]
Effect of treatment with cysteine reactive compound on wild type receptors ([1]; wild type, preliminary experiments): unaffected

N#CC1=C(C#N)C(C#N)C(C#N)=C1C#N [PCCP^−, pentacyanocyclopentdienyl anion]
Concentrations inducing an open-channel block ([1]; GABA EC1, apparent desensitization and off-current): > 1 µM
Inhibition of recombinant α1β2γ2 GABAA receptors, preliminary evaluation ([1]; compounds 1–4 tested): highly active
Concentrations at which currents were stimulated ([1]; currents elicited by low GABA (EC1), highly variable between oocytes): 0.3 to 10 µM
δ, fraction of the voltage field sensed by the blocker from the outside of the membrane ([1]; estimated with Woodhull equation from IC50 at −120, −80, −40 mV): ~0.7
IC50 ([1]; membrane potential −40 mV, n = 3, read-out: IC50): 1800 ± 800 nM
IC50 ([1]; membrane potential −80 mV, voltage-dependence experiment, n = 3, read-out: IC50): 6300 ± 1300 nM
IC50 ([1]; membrane potential −120 mV, n = 3, read-out: IC50): 16200 ± 1300 nM
Shift of the GABA concentration response curve ([1]; presence of 2 µM or 10 µM PCCP^−, currents after 1 min GABA): leftward shift
IC50 [1, 16]: 2600 nM and 2580 nM
Effect of MTSET^+ + GABA treatment on the affinity for PCCP^− ([1]; wild type, treatment applied for 1 min): no effect
IC50 [2]: 2630 ± 310 nM
Change in % inhibition after MTSET^+ + GABA treatment [3]: significant increase
IC50 [3]: 62200 ± 22400 nM
IC50 [4]: 850 ± 460 nM
Change in % inhibition after MTSET^+ + GABA treatment [5]: significant increase
IC50 [6]: 46400 ± 7250 nM
Change in ratio of % inhibition after/before MTSET^+ treatment in the absence of GABA [7]: significant increase
Change in % inhibition after MTSET^+ + GABA treatment ([7]; printed α1T263Cβ2γ2, 5 mM MTSET^+ + 100 µM GABA, inhibitor at about IC50): significant increase
Change in % inhibition after MTSET^+ + GABA treatment [8]: significant increase
IC50 [8, 17]: 3150 ± 480 nM
Change in % inhibition after MTSET^+ + GABA treatment [9]: significant increase
IC50 [9, 17]: 770 ± 110 nM
IC50 [10]: 12500 ± 4800 nM
IC50 [11]: 710 ± 280 nM
Inhibition by PCCP^− [12]: similarly inhibited
Inhibition by PCCP^− [13]: similarly inhibited
IC50 (ELIC): ~100000 nM
Reduction in sensitivity (difference in IC50) between wild type and mutant receptors [14]: about 2 fold
Concentration inducing a current in non-injected oocytes (non-injected oocytes): ≥ 10 µM
Prevention of the MTSET^+ + GABA induced change in inhibitor sensitivity [15]: could be prevented

picrotoxin [reference compound]
IC50 [1, 16]: 2020 ± 890 nM
Change in % inhibition after MTSET^+ + GABA treatment [3]: significant decrease
IC50 [3]: 740 ± 360 nM
IC50 ([4]; α1T260C mutant, GABA EC10, −80 mV, before MTSET^+ treatment): 1310 ± 410 nM
Change in % inhibition after MTSET^+ + GABA treatment ([5]; α1T260C mutant, 5 mM MTSET^+ + 100 µM GABA, inhibitor at about IC50): significant decrease
Reduction in sensitivity (difference in IC50) between wild type and mutant receptors [14]: 7 fold
Prevention of the MTSET^+ + GABA induced change in inhibitor sensitivity [15]: could not be prevented
